In US7932271B2, “Heterocyclic methyl sulfone derivative” (Daiichi Pharmaceutical Co., Ltd., priority 2003, dated 2011) one finds IC50 and melting point data, which are given here for 8 compounds.

Data set [1] deals with β amyloid protein (Aβ) secreted by E35 cells (human glioma H4 cells transfected with APP751 gene). In words: Inhibition of production or secretion of β-amyloid protein (Aβ) in E35 cells, sandwich ELISA of the supernatant. Format: cell-based. The note with it: 24 hours with test compound, compared to DMSO control cells, read-out: Activity (IC50, concentration at which 50% inhibition of Aβ production was observed). The procedure: The inhibitory activity against formation of β amyloid protein of the compounds obtained in Examples was tested in the method described bellow.
E35 cells were established by transfecting APP751 gene which is a wild type human β-amyloid protein precursor into human glioma cells (H4 cells).
E35 cells were seeded in 96-well plates and cultured in an incubator of 37° C. by using a Dulbecco's Modified Eagle's Medium containing 10% inactivated fetal bovine serum (10% FBS-DMEM). Twenty-four hours after seeding, a test compound dissolved in DMSO so as to give its concentration to be 2000 times as much as that of the final concentration was added to the medium in an amount of 1/2000 capacity of the culture medium. The cells were cultured for additional twenty-four hours, and then the supernatant was collected. The amount of β amyloid protein (Aβ) secreted in the supernatant was measured by the sandwich enzyme-linked immunosorbent assay (ELISA). Described specifically, a monoclonal antibody 25-1, which recognized Aβ25-35, was immobilized onto a 96-well ELISA plate, followed by the incubation at 4° C. for 16 to 20 hours. After washing with a phosphate buffer (pH 7.4) (PBS), a biotinylated monoclonal antibody MA32-40, which recognized Aβ1-8, was added, and the plate was kept at 4° C. for 2 hours. After the supernatant was removed and the well was washed sufficiently with PBS, alkaline phosphatase-conjugated streptavidin was added to the plate. Absorbance was measured while adding BlouPhos (manufactured by KPL) as a substrate. An amount of Aβ contained in the supernatant was calculated using a calibration curve separately created using Aβ of a known concentration. IC50 of the test compound was presented as the concentration at which 50% inhibition of Aβ production was observed compared to the amount of Aβ of the control cells to which only DMSO was added.
When there is at least 10-times difference between the IC50 and the concentration at which cytotoxicity appears, then the compound is judged as a compound having an inhibitory activity against production or secretion of β amyloid protein.

Where only a bound is given, the exact number is not on record here.

For the compound `O=S(=O)(c1ccc(Cl)cc1)C(c1cc(F)ccc1F)c1cc(N2CCOCC2)ncc1Cl` (stereo not shown) [Example 59, 4-[5-Chloro-4-[(4-chlorophenylsulfonyl)-(2,5-difluorophenyl)methyl]pyridin-2-yl]morpholine], the melting point was in the range of 180 to 181 °C. In addition, the IC50 in data set [1] fell in the range of 0.005 to 0.05 µM.
For the compound `CS(=O)(=O)Nc1cc(C(c2cc(F)ccc2F)S(=O)(=O)c2ccc(Cl)cc2)c(Cl)cn1` (stereo not shown) [Example 197, N-[5-Chloro-4-[(4-chlorophenylsulfonyl)(2,5-difluorophenyl)methyl]pyridin-2-yl]methanesulfonamide], the melting point lay within 220 to 222 °C. Further, the IC50 in data set [1] was less than 0.005 µM.
In turn, `CS(=O)(=O)Nc1cc(C(c2cc(F)ccc2F)S(=O)(=O)c2ccc(Cl)cn2)c(Cl)cn1` (stereo not shown) [Example 242, N-[5-Chloro-4-[(5-chloropyridin-2-ylsulfonyl)(2,5-difluorophenyl)methyl]pyridin-2-yl]methanesulfonamide] returned a melting point of 214 to 216 °C. Also, the IC50 in data set [1] was in the range of 0.05 to 0.5 µM.
Take `O=S(=O)(c1ccc(Cl)cc1)C(c1cc(F)ccc1F)c1cc(NCCO)ncc1Cl` (stereo not shown) [Example 168, 2-[[5-Chloro-4-[(4-chlorophenylsulfonyl)-(2,5-difluorophenyl)methyl]pyridin-2-yl]amino]ethanol]: the melting point was 168 to 169 °C. For the same compound, the IC50 in data set [1] was less than 0.005 µM.
The like results for `Nc1cc(C(c2cc(F)ccc2F)S(=O)(=O)c2ccc(C(F)(F)F)nc2)c(Cl)cn1` (stereo not shown) [Example 250, [5-Chloro-4-[(2,5-difluorophenyl)(6-trifluoromethylpyridin-3-ylsulfonyl)methyl]pyridin-2-yl]amine] were, in that order, 201 to 202 °C and 0.005 to 0.05 µM.
Turning to `Nc1cc(C(c2cc(F)ccc2F)S(=O)(=O)c2ccc(F)c(F)c2)c(Cl)cn1` (stereo not shown) [Example 247, [5-Chloro-4-[(2,5-difluorophenyl)(3,4-difluorophenylsulfonyl)methyl]pyridin-2-yl]amine], the melting point was 140 to 141 °C. In addition, in data set [1], the IC50 was less than 0.005 µM.
The compound `CS(=O)(=O)N(N)c1cc(C(c2cc(F)ccc2F)S(=O)(=O)c2ccc(Cl)cc2)c(Cl)cn1` (stereo not shown) [Example 225, 1-[5-Chloro-4-[(4-chlorophenylsulfonyl)(2,5-difluorophenyl)methyl]pyridin-2-yl]-1-methylsulfonylhydrazine] yielded a melting point of 152 to 154 °C. In addition, the IC50 in data set [1] fell in the range of 0.005 to 0.05 µM.
Regarding `COc1cc(S(=O)(=O)C(c2cc(F)ccc2F)c2cc(N)ncc2Cl)ccc1Cl` (stereo not shown) [Example 239, [5-Chloro-4-[(4-chloro-3-methoxyphenylsulfonyl)(2,5-difluorophenyl)methyl]pyridin-2-yl]amine], the melting point fell in the range of 198 to 200 °C. The IC50 in data set [1] is 0.05 to 0.5 µM.
